This data set concerns Pseudomonas aeruginosa PAO1 MB9798 (efflux+, IMP-1). The following applies: ratio MITC95 PA 9798/MITC95 PA 9799; imipenem at 2 μg/mL. Summed up: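 Isogenic PAO1 pair (efflux+ MB9798, efflux− MB9799, both IMP-1) tested by microbroth MIC with fixed imipenem and/or ceftazidime, usually at CLSI breakpoint, plus fixed class A/C inhibitor against AmpC. MBL inhibitor titrated; concentration restoring susceptibility recorded and fold difference between strains taken as efflux extent.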

Consider `Nc1nc2c(-c3ccc(S(=O)(=O)NCC4(F)CNC4)c(S(N)(=O)=O)c3-c3nnn[nH]3)cccc2s1` [Example 46, 4-(2-amino-1,3-benzothiazol-4-yl)-N^1-[(3-fluoroazetidin-3-yl)methyl]-3-(1H-tetrazol-5-yl)benzene-1,2-disulfonamide], for which the Efflux ratio stood at 0.50.
Consider `CN1CC2(CCN(S(=O)(=O)c3ccc(-c4cccc5sc(N)nc45)c(-c4nnn[nH]4)c3S(N)(=O)=O)C2)C1` [Example 38, 3-(2-amino-1,3-benzothiazol-4-yl)-6-[(2-methyl-2,6-diazaspiro[3.4]oct-6-yl)sulfonyl]-2-(1H-tetrazol-5-yl)benzenesulfonamide], for which the Efflux ratio is on record as 1.00.
Under `NCCNS(=O)(=O)c1ccc(-c2ccc3ncn(CCN)c3c2)c(-c2nn[nH]n2)c1S(N)(=O)=O` [Example 348, N^1-(2-aminoethyl)-4-(1-(2-aminoethyl)-1H-benzo[d]imidazol-6-yl)-3-(2H-tetrazol-5-yl)benzene-1,2-disulfonamide] stands 4.00; under `CN(C1CNC1)S(=O)(=O)c1ccc(-c2cccc3sc(N)nc23)c(-c2nnn[nH]2)c1S(N)(=O)=O.O=C(O)C(F)(F)F` [Example 105, 3-(4-(2-aminobenzo[d]thiazol-4-yl)-N-methyl-2-sulfamoyl-3-(1H-tetrazol-5-yl)phenylsulfonamido) azetidin-1-ium 2,2,2-trifluoroacetate], 1.00; under `CN(C1CCS(=O)(=O)C1)S(=O)(=O)c1ccc(-c2cccc3sc(N)nc23)c(-c2nnn[nH]2)c1S(N)(=O)=O` (stereo not shown) [Example 41, 4-(2-amino-1,3-benzothiazol-4-yl)-N^1-(1,1-dioxidotetrahydrothiophen-3-yl)-N~1~-methyl-3-(1H-tetrazol-5-yl)benzene-1,2-disulfonamide], 8.00.
As for `NC[C@H](N)CNS(=O)(=O)c1ccc(-c2cccc3ccc(N)nc23)c(-c2nn[nH]n2)c1S(N)(=O)=O` [Example 371, (S)-4-(2-aminoquinolin-8-yl)-N1-(2,3-diaminopropyl)-3-(2H-tetrazol-5-yl)benzene-1,2-disulfonamide], the Efflux ratio was 1.00.
With `Nc1nc2c(-c3ccc(S(=O)(=O)N4CCC(CO)CC4)c(S(N)(=O)=O)c3-c3nnn[nH]3)cccc2s1` [Example 25, 3-(2-amino-1,3-benzothiazol-4-yl)-6-{[4-(hydroxymethyl)piperidin-1-yl]sulfonyl}-2-(1H-tetrazol-5-yl)benzenesulfonamide], the Efflux ratio was determined as 16.00.
Regarding `Cn1c(N)nc2c(-c3ccc(S(=O)(=O)N[C@@H]4CCNC4)c(S(N)(=O)=O)c3-c3nn[nH]n3)cccc21` [Example 164, 4-(2-amino-1-methyl-1H-benzo[d]imidazol-4-yl)-N^1-((R)-pyrrolidin-3-yl)-3-(2H-tetrazol-5-yl)benzene-1,2-disulfonamide], the Efflux ratio was found to be 1.00.
As to `Nc1ccc2cccc(-c3ccc(S(N)(=O)=O)c(S(N)(=O)=O)c3-c3nn[nH]n3)c2n1` [Example 2, 4-(2-aminoquinolin-8-yl)-3-(2H-tetrazol-5-yl)benzene-1,2-disulfonamide], the Efflux ratio was found to be 1.00.
As for `Nc1nc2c(-c3ccc(S(=O)(=O)NCC4(CO)CC4)c(S(N)(=O)=O)c3-c3nnn[nH]3)cccc2s1` [Example 37, 4-(2-amino-1,3-benzothiazol-4-yl)-N1-{[1-(hydroxymethyl)cyclopropyl]methyl}-3-(1H-tetrazol-5-yl)benzene-1,2-disulfonamide], the figure is 1.00; as for `COC(=O)[C@H]1C[C@@H](NS(=O)(=O)c2ccc(-c3cccc4sc(N)nc34)c(-c3nnn[nH]3)c2S(N)(=O)=O)CN1` [Example 128, Methyl(2R,4R)-4-((4-(2-aminobenzo[d]thiazol-4-yl)-2-sulfamoyl-3-(1H-tetrazol-5-yl)phenyl)sulfonamido)pyrrolidine-2-carboxylate], 1.00.
Under `Cn1c(N)nc2c(-c3ccc(S(=O)(=O)N[C@H]4CC[N+](C)(C)C4)c(S(N)(=O)=O)c3-c3nn[n-]n3)cccc21` [Example 167, (S)-5-(6-(2-amino-1-methyl-1H-benzo[d]imidazol-4-yl)-3-(N-(1,1-dimethylpyrrolidin-1-ium-3-yl)sulfamoyl)-2-sulfamoylphenyl)tetrazol-2-ide] stands 2.00.
In the case of `NC[C@@H](N)CNS(=O)(=O)c1ccc(-c2cccc3ccc(N)nc23)c(-c2nn[nH]n2)c1S(N)(=O)=O` [Example 376, (R)-4-(2-aminoquinolin-8-yl)-N1-(2,3-diaminopropyl)-3-(2H-tetrazol-5-yl)benzene-1,2-disulfonamide], the Efflux ratio is 1.00.
As for `CN1CC[C@@H](NS(=O)(=O)c2ccc(-c3cccc4[nH]c(N)nc34)c(-c3nn[nH]n3)c2S(N)(=O)=O)C1` [Example 232, (R)-4-(2-amino-1H-benzo[d]imidazol-4-yl)-N^1-(1-methylpyrrolidin-3-yl)-3-(2H-tetrazol-5-yl)benzene-1,2-disulfonamide], the figure is 2.00; as for `Nc1nc2cccc(-c3ccc(S(=O)(=O)N4CCNCC4)c(S(N)(=O)=O)c3-c3nn[nH]n3)c2[nH]1` [Example 157, 3-(2-amino-3H-benzo[d]imidazol-4-yl)-6-(piperazin-1-ylsulfonyl)-2-(2H-tetrazol-5-yl)benzenesulfonamide], 4.00.
Under `NCC(CN)NS(=O)(=O)c1ccc(-c2cccnc2N)c(-c2nn[nH]n2)c1S(N)(=O)=O` [Example 210, 4-(2-aminopyridin-3-yl)-N1-(1,3-diaminopropan-2-yl)-3-(2H-tetrazol-5-yl)benzene-1,2-disulfonamide] stands 2.00; under `Nc1nc2c(-c3ccc(S(=O)(=O)N[C@H]4CO[C@H]5[C@@H]4OC[C@H]5N)c(S(N)(=O)=O)c3-c3nnn[nH]3)cccc2s1.O=C(O)C(F)(F)F` [Example 103, (3R,3aR,6S,6aR)-6-(4-(2-aminobenzo[d]thiazol-4-yl)-2-sulfamoyl-3-(1H-tetrazol-5-yl)phenylsulfonamido) hexahydrofuro[3,2-b] furan-3-aminium 2,2,2-trifluoroacetate], 2.00.
Under `C[C@H](CN)NS(=O)(=O)c1ccc(-c2cccc(N)n2)c(-c2nn[nH]n2)c1S(N)(=O)=O` [Example 318, (R)—N1-(1-aminopropan-2-yl)-4-(6-aminopyridin-2-yl)-3-(2H-tetrazol-5-yl) benzene-1,2-disulfonamide] stands 1.00; under `NCCNS(=O)(=O)c1ccc(-c2cccc3[nH]c(N)nc23)c(-c2nn[nH]n2)c1S(N)(=O)=O` [Example 12, 4-(2-amino-1H-benzo[d]imidazol-4-yl)-N^1-(2-aminoethyl)-3-(2H-tetrazol-5-yl)benzene-1,2-disulfonamide], 0.75.
As for `NCCOCCNS(=O)(=O)c1ccc(-c2cccc3sc(N)nc23)c(-c2nnn[nH]2)c1S(N)(=O)=O` [Example 203, 4-(2-aminobenzo[d]thiazol-4-yl)-N^1-(2-(2-aminoethoxy)ethyl)-3-(1H-tetrazol-5-yl)benzene-1,2-disulfonamide], the Efflux ratio is on record as 0.50.
On to `Nc1ccc(-c2ccc(S(=O)(=O)NC[C@H]3CNCCN3)c(S(N)(=O)=O)c2-c2nn[nH]n2)cn1` [Example 315, (R)-4-(6-aminopyridin-3-yl)-N1-(piperazin-2-ylmethyl)-3-(1H-tetrazol-5-yl)benzene-1,2-disulfonamide], for which the Efflux ratio is on record as 1.00.
Under `Nc1nc2c(-c3ccc(S(=O)(=O)N[C@]4(CO)CCNC4)c(S(N)(=O)=O)c3-c3nnn[nH]3)cccc2[nH]1` [Example 177, (R)-4-(2-amino-1H-benzo[d]imidazol-4-yl)-N1-(3-(hydroxymethyl)pyrrolidin-3-yl)-3-(1H-tetrazol-5-yl)benzene-1,2-disulfonamide] stands 0.50; under `Nc1nc2c(-c3ccc(S(=O)(=O)NC4CNC4)c(S(N)(=O)=O)c3-c3nn[nH]n3)cccc2[nH]1` [Example 252, 4-(2-amino-1H-benzo[d]imidazol-4-yl)-N1-(azetidin-3-yl)-3-(2H-tetrazol-5-yl)benzene-1,2-disulfonamide], 0.68; under `CN(C[C@@H]1CCCN1)S(=O)(=O)c1ccc(-c2cccc3sc(N)nc23)c(-c2nnn[nH]2)c1S(N)(=O)=O.O=CO` [Example 121, (S)-2-((4-(2-aminobenzo[d]thiazol-4-yl)-N-methyl-2-sulfamoyl-3-(1H-tetrazol-5-yl)phenylsulfonamido)methyl)pyrrolidin-1-ium formate], 4.00.
`Nc1nc2c(-c3ccc(S(=O)(=O)N[C@@H]4CN[C@H](CO)C4)c(S(N)(=O)=O)c3-c3nnn[nH]3)cccc2[nH]1` [Example 175, 4-(2-amino-1H-benzo[d]imidazol-4-yl)-N^1 - ((3S,5S)-5-(hydroxymethyl)pyrrolidin-3-yl)-3-(1H-tetrazol-5-yl)benzene-1,2-disulfonamide]: the Efflux ratio was determined as 0.50.
For the compound `Nc1nc2c(-c3ccc(S(=O)(=O)NCc4ccccn4)c(S(N)(=O)=O)c3-c3nnn[nH]3)cccc2s1.O=C(O)C(F)(F)F` [Example 106, 2-((4-(2-aminobenzo[d]thiazol-4-yl)-2-sulfamoyl-3-(1H-tetrazol-5-yl)phenylsulfonamido)methyl)pyridin-1-ium 2,2,2-trifluoroacetate], the Efflux ratio came to 4.00.
Take `NC[C@H](CO)NS(=O)(=O)c1ccc(-c2cccc3sc(N)nc23)c(-c2nnn[nH]2)c1S(N)(=O)=O` [Example 202, (R)—N^1-(1-amino-3-hydroxypropan-2-yl)-4-(2-aminobenzo[d]thiazol-4-yl)-3-(1H-tetrazol-5-yl)benzene-1,2-disulfonamide]: the Efflux ratio worked out at 1.00.
As for `CNCCNS(=O)(=O)c1ccc(-c2cccc3sc(N)nc23)c(-c2nnn[nH]2)c1S(N)(=O)=O` [Example 31, 4-(2-amino-1,3-benzothiazol-4-yl)-N^1-[2-(methylamino)ethyl]-3-(1H-tetrazol-5-yl)benzene-1,2-disulfonamide], the figure is 1.50.
